Results reported in patent US20040228948A1, “Increasing the concentration of conjugated linoleic acid isomers in the milk fat and/or tissue fat of ruminants” (priority 2003, published 2004).

Legend:
dairy cows = settings: 24 mg/kg of dietary dry matter, 28-day period; increase from 0.8%; cited from earlier work
lactating Holstein cows = assay: Example 2 feeding trial: milk fatty acid composition; format: in vivo; settings: FIGS. 4 and 5, monensin with safflower oil
Description: Twenty-eight primiparous and 34 multiparous lactating Holstein cows were used in a randomized complete block design with repeated measures. Animals were blocked according to parity and DIM. Cows within each block were then randomly assigned to one of six treatment diets: (1) Control diet (CTL); (2) Control diet including safflower oil supplemented at 6% of DM (SAFF); (3) Control diet including safflower oil supplemented at 6% of DM plus Vitamin E supplemented at 150 IU/kg DM (SAFF/E); (4) Control diet including safflower oil supplemented at 6% of DM plus monensin supplemented at 24 ppm of DM (SAFF/M); (5) Control diet including safflower oil supplemented at 6% of DM plus Vitamin E supplemented at 150 IU/kg DM plus monensin supplemented at 24 ppm of DM (SAFF/M/E); (6) Control diet including flaxseed oil supplemented at 6% of DM plus Vitamin E supplemented at 150 IU/kg DM (FLAX/E). […] Feed intake was recorded daily and adjusted to maintain 5 to 10% orts. […] Milk yield was recorded daily. […] A portion of milk from each cow was preserved with potassium dichromate and analyzed for protein, fat, lactose, and somatic cell count at the Alberta Agriculture, Food and Rural Development Central Milk Testing Laboratory (Edmonton, Alberta, Canada). […] The data were analyzed as a randomized complete block design with repeated measures using MIXED procedure of SAS version 8:3 (SAS Institute, Cary, N.C.).

[1] = system: DMBA-induced mammary tumors in rats; settings: 0.05 g CLA/100 g of diet; cited from earlier work
mouse DMBA model = settings: synthetically prepared mixture of the CLA isomers; cited from earlier work

Row | Molecule | CLA in milk fat (dairy cows) | persistence of effect on CLA and trans 18:1 (lactating Holstein cows) | number of mammary tumors [1] | papillomas compared to the control mice (mouse DMBA model)
1 | CC[C@@]1([C@@H]2O[C@@H]([C@H]3O[C@@](O)(CO)[C@H](C)C[C@@H]3C)C[C@@H]2C)CC[C@H]([C@]2(C)CC[C@]3(C[C@H](O)[C@@H](C)[C@@H]([C@@H](C)[C@@H](OC)[C@H](C)C(=O)O)O3)O2)O1 [monensin] | 1.3 % of milk fat | consistent across the two-month period | – | –
2 | Conjugated linoleic acid [CLA] | – | – | reduction | about one-half
